Reference: patent publication US11220500B2, “Crystalline form of Valbenazine dibesylate” (Apotex Inc., priority 2018, dated 2022)
Converted amounts (≈) assume the structure as drawn. Structures can show the parent of a compound that is named as a salt. Where two headings read alike, the source gives them in different places.

Legend:
[1] = 24 h
Description: (§1) The solubility of Valbenazine free base, Valbenazine ditosylate and Valbenazine dibesylate were measured in buffer solutions (pH 1.2 to 6.8) in a temperature-controlled water bath at 37° C. with stirring using magnetic stir bars at 325 rpm (rotations per minute). Each Valbenazine sample was weighed and transferred into a 20 mL vial and then 10 mL of buffer was added. The samples were shaken for 1 minute. If all sample dissolved, more sample was added until a saturated solution was obtained. The samples were then equilibrated at 37° C. with stirring using magnetic stir bars at 325 rpm for 24 hours. After equilibration, samples were filtered through 0.45 μm PVDF filters and further diluted with a methanol/water (60/40 v/v) solution. Samples were analyzed by HPLC against known concentrations of standards. The pH values of the solutions were measured after completion of testing.

physchem = details: 37 °C, thermodynamic from solid, Solubility expressed as Valbenazine free base
Description: as §1

[2] = Comparative solubility of Valbenazine forms in buffer solutions (pH 1.2 to 6.8) at 37° C., HPLC; details: equilibrated 24 hours
Description: as §1

[3] = Form stability by PXRD of uncapped samples in a 27° C./60% RH stability chamber; assay type: physicochemical
Description: Valbenazine dibesylate Form APO-I can be characterized by a PXRD diffractogram comprising, among other peaks, characteristic peaks, expressed in degrees 2θ (±0.2°), at 6.3°, 9.8° and 15.6°. Preferably, the PXRD diffractogram further comprises at least three peaks, expressed in degrees 2θ (±0.2°), selected from the group consisting of 5.3°, 7.7°, 8.5°, 12.5°, 14.0°, 16.8°, 17.1°, 17.8°, 18.6° and 19.7°. More preferably, the PXRD diffractogram further comprises peaks, expressed in degrees 2θ (±0.2°), at 5.3°, 7.7°, 8.5°, 12.5°, 14.0°, 16.8°, 17.1°, 17.8°, 18.6° and 19.7°.
Data were acquired on a PANanalytical X'Pert Pro MPD diffractometer with fixed divergence slits and an X'Celerator detector. The diffractometer was configured in Bragg-Brentano geometry; data was collected over a 2θ range of 3° to 40° using CuKα radiation at a power of 40 mA and 45 kV. CuKβ radiation was removed using a divergent beam nickel filter. A step size of 0.017°, and a step time of 40 seconds, was used. Raw data were evaluated using X'Pert High Score Plus. Samples were rotated to reduce preferred orientation effects. Samples were lightly ground prior to analysis.

## COc1cc2c(cc1OC)[C@H]1C[C@@H](OC(=O)[C@@H](N)C(C)C)[C@H](CC(C)C)CN1CC2 [Free base, (2R,3R,11bR)-1,3,4,6,7,11b-hexahydro-9,10-dimethoxy-3-(2-methylpropyl)-2H-benzo[a]quinolizin-2-yl-L-valine ester]
[1]; pH 4.5
  Solubility expressed as Valbenazine free base: 21.6 mg/mL (≈ 51.6 mM)
[1]; pH 6.8
  Solubility expressed as Valbenazine free base: 1.2 mg/mL (≈ 2.87 mM)
physchem; pH 1.2, simulated gastric fluid
  solubility at 24 h: 21.3 mg/mL (≈ 50.9 mM)

## Valbenazine ditosylate [Ditosylate salt]
[2]; buffer pH 1.2, 37° C.
  Solubility expressed as Valbenazine free base: 20.9 mg/mL
[2]; buffer pH 4.5, 37° C.
  Solubility expressed as Valbenazine free base: 17.7 mg/mL
[2]; buffer pH 6.8, 37° C.
  Solubility expressed as Valbenazine free base: 7.6 mg/mL

## COc1cc2c(cc1OC)[C@H]1C[C@@H](OC(=O)[C@@H](N)C(C)C)[C@H](CC(C)C)CN1CC2 [Dibesylate salt, Valbenazine dibesylate]
[1]
  Difference of aqueous solubility from that of Valbenazine ditosylate of the approved drug product: ≤ 10 % units
[1]; pH 1.2
  Solubility expressed as Valbenazine free base: 22.4 mg/mL
[1]; pH 6.8
  Solubility expressed as Valbenazine free base: 8.1 mg/mL
physchem; pH 4.5, aqueous buffer
  solubility at 24 h: 18.5 mg/mL
[3]; open exposure to 27° C./60% RH for at least 5 months
  Form stability: exhibits form stability
[3]; uncapped samples, 27° C./60% RH stability chamber, at least 20 weeks
  Change in the crystalline form (PXRD): no change in the crystalline form
